What was measured:
[1] = system: normal NK cells expanded with K562-aAPC; experiment: drug sensitivity score (DSS) (DSS units); higher = more sensitive; extreme values may be limits of the assay; settings: 72 h; IL-2 2.5 ng/mL
Procedure: (§1)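 Drug sensitivity and resistance testing on K562-aAPC-expanded normal NK cells: 5 concentrations (10-fold steps over a 10,000-fold range), 72 h at 37 °C, viability by CellTiter-Glo normalised to DMSO and benzethonium chloride controls; DSS from the fitted curve.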

NKL (IL-2 2.5 ng/mL) [2] = experiment: as above; settings: 72 h
[3] = system: normal primary NK cells, pool 2 (3 donors) (IL-2 2.5 ng/mL); experiment: as above; settings: 72 h
[4] = system: normal primary NK cells, pool 1 (3 donors) (IL-2 2.5 ng/mL); experiment: as above; settings: 72 h
KHYG-1 (IL-2 2.5 ng/mL) [5] = experiment: as above; settings: 72 h
NK-92 (IL-2 2.5 ng/mL) [6] = experiment: as above; settings: 72 h
YT (IL-2 2.5 ng/mL) [7] = experiment: as above; settings: 72 h
IMC-1 (IL-2 20 ng/mL) [8] = experiment: as above; settings: 72 h
[9] = system: normal primary NK cells, pool 3 (3 donors) (IL-2 2.5 ng/mL); experiment: as above; settings: 72 h
NK-YS (IL-2 2.5 ng/mL) [10] = experiment: as above; settings: 72 h
KAI3 (IL-2 2.5 ng/mL) [11] = experiment: as above; settings: 72 h
DERL-7 (IL-2 2.5 ng/mL) [12] = experiment: as above; settings: 72 h
[13] = system: normal primary NK cells, pool 1 (3 donors), resting (IL-2 0 ng/mL); experiment: as above; settings: 72 h
SNK-6 (IL-2 2.5 ng/mL) [14] = experiment: as above; settings: 72 h
[15] = system: normal NK cells expanded with K562-aAPC; experiment: percent inhibition of viability; higher = more inhibition; settings: 72 h, IL-2 2.5 ng/mL
Procedure: as §1

NKL (IL-2 2.5 ng/mL) [16] = experiment: as above; settings: 72 h
[17] = system: normal primary NK cells, pool 2 (3 donors) (IL-2 2.5 ng/mL); experiment: as above; settings: 72 h
[18] = system: normal primary NK cells, pool 1 (3 donors) (IL-2 2.5 ng/mL); experiment: as above; settings: 72 h
KHYG-1 (IL-2 2.5 ng/mL) [19] = experiment: as above; settings: 72 h
NK-92 (IL-2 2.5 ng/mL) [20] = experiment: as above; settings: 72 h
YT (IL-2 2.5 ng/mL) [21] = experiment: as above; settings: 72 h
IMC-1 (IL-2 20 ng/mL) [22] = experiment: as above; settings: 72 h
[23] = system: normal primary NK cells, pool 3 (3 donors) (IL-2 2.5 ng/mL); experiment: as above; settings: 72 h
NK-YS (IL-2 2.5 ng/mL) [24] = experiment: as above; settings: 72 h
KAI3 (IL-2 2.5 ng/mL) [25] = experiment: as above; settings: 72 h
DERL-7 (IL-2 2.5 ng/mL) [26] = experiment: as above; settings: 72 h
[27] = system: normal primary NK cells, pool 1 (3 donors), resting (IL-2 0 ng/mL); experiment: as above; settings: 72 h
SNK-6 (IL-2 2.5 ng/mL) [28] = experiment: as above; settings: 72 h

CN(Cc1cnc2nc(N)nc(N)c2n1)c1ccc(C(=O)N[C@@H](CCC(=O)O)C(=O)O)cc1 [Methotrexate] (max concentration tested 5000 nM)
Settings | drug sensitivity score
DERL-7 (IL-2 2.5 ng/mL) [12] | 7.89
IMC-1 (IL-2 20 ng/mL) [8] | 26.7
KAI3 (IL-2 2.5 ng/mL) [11] | 25.6
KHYG-1 (IL-2 2.5 ng/mL) [5] | 29.8
NK-92 (IL-2 2.5 ng/mL) [6] | 24.3
NK-YS (IL-2 2.5 ng/mL) [10] | 27.5
NKL (IL-2 2.5 ng/mL) [2] | 16.1
SNK-6 (IL-2 2.5 ng/mL) [14] | 27.2
YT (IL-2 2.5 ng/mL) [7] | 20.5
[1] | 5.62
[3] | 0.89
[4] | 0
[9] | 0.89
[13] | 1.25

percent inhibition of viability [%]
Settings | 0.5 nM | 5 nM | 50 nM | 500 nM | 5000 nM
DERL-7 (IL-2 2.5 ng/mL) [26] | 1.41 | 1.81 | -8.11 | 43.7 | 51.8
IMC-1 (IL-2 20 ng/mL) [22] | -3.79 | 5.79 | 72.9 | 95.6 | 97.3
KAI3 (IL-2 2.5 ng/mL) [25] | 2.61 | 9.06 | 73.1 | 86.4 | 80.6
KHYG-1 (IL-2 2.5 ng/mL) [19] | 1.68 | 0.21 | 95.2 | 104 | 99.2
NK-92 (IL-2 2.5 ng/mL) [20] | -11.1 | 6.17 | 69.3 | 84 | 80.7
NK-YS (IL-2 2.5 ng/mL) [24] | 7.63 | 4.28 | 83.5 | 93 | 87.1
NKL (IL-2 2.5 ng/mL) [16] | -5.39 | -6.27 | 40.4 | 61.1 | 58.2
SNK-6 (IL-2 2.5 ng/mL) [28] | 2.63 | 21 | 76.8 | 81.2 | 82.7
YT (IL-2 2.5 ng/mL) [21] | 5.17 | 3.44 | 63.8 | 54.4 | 48.9
[15] | -3.65 | -3.48 | -3.07 | 34 | 31.4
[17] | -8.41 | -4.79 | -9.59 | -5.9 | -3.72
[18] | -2.85 | -7.99 | 1.44 | -1.93 | -0.84
[23] | -11.3 | -6.43 | -11.2 | -2.82 | -3.84
[27] | -7.95 | -0.85 | 11.4 | 8.67 | 18.2

Cc1ccc(-n2nc(C(C)(C)C)cc2NC(=O)Nc2ccc(OCCN3CCOCC3)c3ccccc23)cc1 [Doramapimod] (max concentration tested 10000 nM)
Settings | drug sensitivity score
DERL-7 (IL-2 2.5 ng/mL) [12] | 1.44
IMC-1 (IL-2 20 ng/mL) [8] | 2.23
KAI3 (IL-2 2.5 ng/mL) [11] | 10.7
KHYG-1 (IL-2 2.5 ng/mL) [5] | 4.24
NK-92 (IL-2 2.5 ng/mL) [6] | 5.9
NK-YS (IL-2 2.5 ng/mL) [10] | 6.27
NKL (IL-2 2.5 ng/mL) [2] | 16.4
SNK-6 (IL-2 2.5 ng/mL) [14] | 0
YT (IL-2 2.5 ng/mL) [7] | 3.98
[1] | 5.25
[3] | 4.66
[4] | 4.39
[9] | 5.02
[13] | 5.69

percent inhibition of viability [%]
Settings | 1 nM | 10 nM | 100 nM | 1000 nM | 10000 nM
DERL-7 (IL-2 2.5 ng/mL) [26] | -1.24 | 0.45 | -6.35 | 0.4 | 31.3
IMC-1 (IL-2 20 ng/mL) [22] | -7.13 | -0.74 | 1.31 | 8.39 | 27.3
KAI3 (IL-2 2.5 ng/mL) [25] | -7.62 | 9.59 | 18.9 | 43.5 | 68
KHYG-1 (IL-2 2.5 ng/mL) [19] | -0.62 | 4.98 | 0.58 | 7.1 | 56.5
NK-92 (IL-2 2.5 ng/mL) [20] | 13 | 11 | 8.99 | 11.7 | 71.5
NK-YS (IL-2 2.5 ng/mL) [24] | -8.49 | 3.68 | 5.33 | 24.4 | 63.3
NKL (IL-2 2.5 ng/mL) [16] | -7.33 | -0.1 | 12 | 80.7 | 98.6
SNK-6 (IL-2 2.5 ng/mL) [28] | -8.06 | 6.04 | -5.96 | -39.3 | 6.22
YT (IL-2 2.5 ng/mL) [21] | 1.11 | 9.26 | 7.83 | 16.7 | 45
[15] | -6.83 | -0.74 | -1.74 | 16.5 | 52.8
[17] | -9.43 | -4.09 | 6.14 | -0.89 | 85.1
[18] | 2.74 | -0.9 | -0.42 | -10.6 | 91.3
[23] | -11.6 | -1.56 | 4.57 | 2.15 | 85.2
[27] | 0.09 | -4.02 | -3.55 | 3.17 | 94.7
